In PubChem BioAssay (NCI):
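How tested: cells in 96-well plates exposed to compound for 48 hours at five concentrations. Abbreviation: GI50, concentration required for 50% inhibition of growth. At the TGI there is no net growth.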

Key:
Assay in all cases: inhibition of tumour cell growth, NCI panel, 48 h
[1] = system: CCRF-CEM leukemia
[2] = system: MDA-MB-231 breast
[3] = system: NCI-H23 lung
[4] = system: LOX IMVI melanoma
[5] = system: RPMI-8226 leukemia
[6] = system: SR leukemia
[7] = system: MCF7 breast
[8] = system: PC-3 prostate
[9] = system: MOLT-4 leukemia
[10] = system: HL-60(TB) leukemia
[11] = system: HCT-116 colon
[12] = system: OVCAR-5 ovarian
[13] = system: UO-31 renal
[14] = system: NCI-H460 lung
[15] = system: HT29 colon
[16] = system: IGROV1 ovarian
[17] = system: MDA-MB-435

| SMILES | TGI [1] [µM] | TGI [2] [µM] | TGI [3] [µM] | TGI [4] [µM] | TGI [5] [µM] | TGI [6] [µM] | TGI [7] [µM] | TGI [8] [µM] | TGI [9] [µM] | TGI [10] [µM] | TGI [11] [µM] | TGI [12] [µM] | TGI [13] [µM] | TGI [14] [µM] | TGI [15] [µM] | TGI [16] [µM] | TGI [17] [µM] | GI50 [2] [µM] | GI50 [8] [µM] |
| --- | --- | --- | --- | --- | --- | --- | --- | --- | --- | --- | --- | --- | --- | --- | --- | --- | --- | --- | --- |
| Nc1nc2c(ncn2Cc2ccc(CO)cc2)c(=O)[nH]1 | > 100 | > 100 | > 100 | > 100 | > 100 | > 100 | > 100 | > 100 | > 100 | > 100 | > 100 | > 100 | > 100 | > 100 | > 100 | > 100 | > 100 |  |  |
| Cc1cc(OCc2nnc3n2N=C(c2cc(F)c(Cl)cc2Cl)/C(=C/c2ccc(Cl)cc2)S3)ccc1Cl | > 100 | > 100 | 79.9 | 50.1 | 33.2 | 30.4 | 87.9 | 65 | 19.8 | 21.3 | 66.9 | 95.5 | > 100 | > 100 | 52.5 | 52.8 | > 100 |  |  |
| COc1ccc(C(OCC2OC(n3cc(C)c(=O)[nH]c3=O)CC2n2cc(Cn3cc(Br)c(=O)[nH]c3=O)nn2)(c2ccccc2)c2ccccc2)cc1 (centres undefined) | > 100 | > 100 | > 100 | > 100 | > 100 | > 100 | > 100 | > 100 | > 100 | 5.09 | > 100 | > 100 | > 100 |  | > 100 | > 100 | > 100 |  |  |
| CC1C[C@]2(C)C(=O)Nc3ccccc3[C@@H]2Nc2ccccc21 (some centres undefined) | 63.4 | 36 | 54.8 | 30.8 | 59.5 | 41.4 | 84.9 | 61.3 | 59.2 | 61 | 33.6 | > 100 | > 100 | 65.8 | 30 | 78.2 | 55.5 |  |  |
| Cn1c(N)c2c3c(sc2nc1=O)CCCC3 |  | > 75 | > 75 | > 75 | > 75 | > 75 | > 75 | > 75 | > 75 | > 75 | > 75 | > 75 | > 75 | > 75 | > 75 | > 75 | > 75 |  |  |
| Cc1ccc(C(=O)N/N=C(\N=Nc2ccccc2[N+](=O)[O-])c2ccc(N(C)C)cc2)cc1 | > 100 | > 100 | > 100 | > 100 | > 100 | > 100 | > 100 | > 100 | > 100 | > 100 | > 100 | > 100 | > 100 | > 100 | > 100 | > 100 | > 100 |  |  |
| COC(=O)c1c(O)ccc2c1c1c(n2Cc2ccc(Cl)cc2Cl)C(=O)c2ccccc2C1 | 71.3 | > 100 | > 100 | 61.9 | 49 | > 100 | 89.9 | 73.3 | > 100 | > 100 | > 100 |  | > 100 | > 100 | > 100 | > 100 | > 100 |  |  |
| CC(C)(C)C(=O)OC(N)/C=C/c1ccccc1 (centres undefined) | > 100 | > 100 | > 100 |  | > 100 | > 100 | > 100 | > 100 | > 100 | > 100 | > 100 | > 100 | > 100 | > 100 | > 100 | > 100 | > 100 |  |  |
| CCOC(=O)C1=C(N)Oc2ccc(Br)cc2C1C(C#N)C(=O)OCC (centres undefined) | 44.5 | 55.9 | 47.3 | 33.1 | 41.6 | > 100 | 89.4 | 43.4 | 90.9 | > 100 | 42.2 | 66.3 | 35.8 | > 100 |  | 36.5 | 37.9 |  |  |
| CCSc1[nH]c(Nc2nc(-c3ccccc3)n(-c3ccccc3)n2)c(C(N)=O)c1C(N)=O | > 10 | > 10 | > 10 | > 10 | > 10 | > 10 | > 10 | > 10 | > 10 | > 10 |  |  |  |  | > 10 | > 10 | > 10 |  |  |
| Cc1c(CNc2ccc(C(=O)NC(CC(=O)O)C(=O)O)cc2)ccc2nc(N)nc(N)c12 (centres undefined) |  | > 1000 | > 1000 | > 1000 |  | > 1000 | > 1000 | > 1000 | > 1000 | > 1000 | > 1000 | > 1000 | > 1000 | > 1000 | > 1000 | > 1000 | > 1000 | > 1000 | < 0.01 |
| O=c1cc(-c2ccccc2)[nH]c2c(S)cccc12 | > 100 | > 100 | > 100 |  | > 100 | > 100 | > 100 | > 100 | > 100 | > 100 | > 100 | > 100 |  | > 100 | > 100 | > 100 | > 100 |  |  |
| CN1C(=O)C(CC=O)(C(C)(C)C)c2ccccc21 (centres undefined) | > 100 | > 100 | > 100 | > 100 | > 100 | > 100 | > 100 | > 100 | > 100 | > 100 | > 100 | > 100 | > 100 | > 100 |  |  | > 100 |  |  |
| O=C1C[C@H]2[C@@H](O1)[C@@H](O)CN1C(=O)c3ccccc3[C@H]21 | > 100 | > 100 | > 100 | > 100 | > 100 | > 100 | > 100 | > 100 | > 100 |  | > 100 | > 100 | > 100 | > 100 | > 100 | > 100 | > 100 |  |  |
| COc1ccc(C(=O)/C=C/c2ccncc2)cc1OC | 18.6 | 24.3 | 22.7 | 3.05 |  | > 100 | 13.4 | 30.6 | 86.7 | 5.02 | 18.9 | 27.3 | 28.1 |  | 21.7 | 26.6 | 28.1 |  |  |
| CC1(C)OC(=C(C#N)C#N)C(C#N)=C1/C=C/c1ccncc1 | 2.4 | 4.36 | 5.56 | 3.51 | 4.21 | 4.74 | 4.28 | 4.62 | 4.42 |  | 3.46 | 8.11 | 8.34 | 22.4 | 4.07 | 4.21 | 10.6 |  |  |
| COc1ccc(CCN=C2OCc3ccccc32)cc1OC | > 100 | > 100 | > 100 | > 100 |  | 62.3 | 90.4 | > 100 | > 100 | 32.6 | 71.3 |  | > 100 | > 100 | > 100 | > 100 | > 100 |  |  |
| O=C(c1cc(Cl)cc(Cl)c1)N1CCN(C(=O)c2cc(Cl)cc(Cl)c2)C1=S | 21.4 | 31.9 | 34.6 | 11.6 |  | 11.3 | 12.5 | 30.3 | 19.6 | 6.28 | 30 | 42.2 | 6.08 | 37.2 | 51.9 | 32.8 | 29.9 |  |  |
| CCCCCC(/C=C/C1CCC(=O)C1CC#C[Si](C)(C)C)OCc1ccccc1 (centres undefined) | 17.2 | 54.4 | 73.6 | 35.8 | 44.3 | > 57.4 | 44 | > 64.1 | > 68.9 |  | 34.9 | 39.5 | 34.3 | 30.7 | 31.1 | 28.7 | 41.7 |  |  |
| CC(CCC#N)(CCC#N)C(=O)CC(O)(C(F)(F)F)C(F)(F)F | 7.84 | 14.2 | 19.6 | 8.14 |  | 3.77 | 21.2 | 28.4 | 2.8 | 3.99 | 7.57 | 32.4 | 13.1 | 39 | 28.7 | 29.3 | 72.7 |  |  |
| C[C@@H]1C[C@](O)([C@@H](C)Cl)C(=O)O[C@@H]2CCN3CC=C(COC(=O)[C@]1(C)O)[C@H]23 | > 10 | > 100 | > 10 | > 100 | > 100 | > 100 | > 100 | > 100 |  | > 100 | > 100 | > 100 | > 10 | > 10 | > 100 | > 100 | > 100 |  |  |
| O=C1/C(=C/c2ccccc2)NC(=S)N1CN1CCOCC1 | > 100 | > 100 | > 100 | > 100 | > 100 | > 100 | > 100 | > 100 | > 100 |  | > 100 | > 100 | > 100 |  | > 100 | > 100 | > 100 |  |  |
